Test results reported in article PMC7508416 (Chemical research in toxicology, 2020).
Read-outs that look alike come from different tables or passages of the source. Marks after values point to notes of the source that are not given here.

Experiments:
[1] = gavage of a technical mixture containing 35% 2IPPDPP; cited from earlier work
[2] = design: species or system human; details: pooled urine of children aged 3-6; tentative, exact mass match
[3] = for Depletion rate, slope, first-order kinetics / Depletion rate, slope, zero-order kinetics: linear regression
[4] = for % Depletion: after 60 min (Eq. 1); for Percentage of Initial Parent Administration (Mean ± Std Dev): Total: parents plus quantified metabolites; for Initial parent mass unaccounted for after quantifying suspected metabolites: metabolites with authentic standards available
[5] = cited from earlier work
[6] = cited from earlier work; remark: listed apart in the source
[7] = human liver microsomes; cited from earlier work
[8] = 2 μM; herring gull liver microsomes; cited from earlier work
[9] = polar bear liver microsomes; cited from earlier work
[10] = cited from earlier work; remark: listed apart in the source
[11] = 1 μM, s9 & sulfatase & glucuronidase
[12] = 10 μM, s9 & sulfatase & glucuronidase

Row | Molecule | Depletion rate, slope, first-order kinetics ([3]; 1 μM dose) | Depletion rate, slope, zero-order kinetics ([3]; 1 μM dose) | Depletion rate, slope, first-order kinetics ([3]; 10 μM dose) | Depletion rate, slope, zero-order kinetics ([3]; 10 μM dose) | Percentage of Initial Parent Administration (Mean ± Std Dev): parent compound ([4]; 1 μM, Abiotic Control) | % Depletion ([4]; 1 μM, Abiotic Control) | Percentage of Initial Parent Administration (Mean ± Std Dev): parent compound ([4]; 1 μM, Heat-inactivated s9) | % Depletion ([4]; 1 μM, Heat-inactivated s9) | Percentage of Initial Parent Administration (Mean ± Std Dev): parent compound ([4]; 1 μM, s9) | Percentage of Initial Parent Administration (Mean ± Std Dev): parent compound ([4]; 1 μM, s9 & glucuronidase) | % Depletion ([4]; 1 μM, s9 & glucuronidase) | Percentage of Initial Parent Administration (Mean ± Std Dev): parent compound ([4]; 1 μM, s9 & sulfatase) | % Depletion ([4]; 1 μM, s9 & sulfatase) | % Depletion ([4]; 1 μM, s9) | Percentage of Initial Parent Administration (Mean ± Std Dev): parent compound ([4]; 1 μM, unprocessed spike) | Percentage of Initial Parent Administration (Mean ± Std Dev): Total ([4]; 1 μM, unprocessed spike) | Percentage of Initial Parent Administration (Mean ± Std Dev): parent compound ([4]; 10 μM, Abiotic Control) | % Depletion ([4]; 10 μM, Abiotic Control) | Percentage of Initial Parent Administration (Mean ± Std Dev): parent compound ([4]; 10 μM, Heat-inactivated s9) | % Depletion ([4]; 10 μM, Heat-inactivated s9) | further results
1 | 2-phenyl-4H,−4,4-dimethyl-1,1,3,2 -benzodioxapho-sphoran-2-oxide |  |  |  |  |  |  |  |  |  |  |  |  |  |  |  |  |  |  |  |  | Detection in rabbit bile [1]: detected; Detection in human urine samples (number of samples out of 9) [2]: 1
2 | CC(C)c1ccccc1OP(=O)(Oc1ccccc1)Oc1ccccc1 [2IPPDPP, 2-isopropylphenyl diphenyl phosphate] | −0.010 ln[nmol]/min/mg protein | −0.013 ^* nmol/min/mg protein | −0.0048 ln[nmol]/min/mg protein | −0.092 nmol/min/mg protein | 105 ± 20% | 0% | 101 ± 8% | 0% | 56 ± 10% | 65 ± 3% | 35% | 64 ± 6% | 36% | 44% | 100 ± 13% | 100 ± 13% | 103 ± 10% | 0% | 103 ± 11% | 0% | Percentage of Initial Parent Administration (Mean ± Std Dev): parent compound [4, 11]: 67 ± 4%; % Depletion [4, 11]: 33%; Percentage of Initial Parent Administration (Mean ± Std Dev): parent compound ([4]; 10 μM, s9): 77 ± 5%; Percentage of Initial Parent Administration (Mean ± Std Dev): parent compound ([4]; 10 μM, s9 & glucuronidase): 82 ± 3%; % Depletion ([4]; 10 μM, s9 & glucuronidase): 18%; Percentage of Initial Parent Administration (Mean ± Std Dev): parent compound [4, 12]: 84 ± 4%; % Depletion [4, 12]: 16%; % Depletion ([4]; 10 μM, s9 & sulfatase): 20%; % Depletion ([4]; 10 μM, s9): 23%; Percentage of Initial Parent Administration (Mean ± Std Dev): parent compound ([4]; 10 μM, unprocessed spike): 100 ± 9%; Initial parent mass unaccounted for after quantifying suspected metabolites [4]: approximately 20%
3 | CC(C)c1ccc(OP(=O)(Oc2ccccc2)Oc2ccccc2)cc1 [4IPPDPP, 4-isopropylphenyl diphenyl phosphate] | −0.015 ln[nmol]/min/mg protein | −0.042 nmol/min/mg protein | −0.0034 ln[nmol]/min/mg protein | −0.097 nmol/min/mg protein | 108 ± 23% | 0% | 82 ± 5% | 18% | 27 ± 4% | 27 ± 1% | 73% | 29 ± 3% | 71% | 73% | 100 ± 2% | 100 ± 13% | 94 ± 6% | 6% | 97 ± 10% | 3% | Percentage of Initial Parent Administration (Mean ± Std Dev): parent compound [4, 11]: 32 ± 3%; % Depletion [4, 11]: 68%; Percentage of Initial Parent Administration (Mean ± Std Dev): parent compound ([4]; 10 μM, s9): 55 ± 3%; Percentage of Initial Parent Administration (Mean ± Std Dev): parent compound ([4]; 10 μM, s9 & glucuronidase): 57 ± 2%; % Depletion ([4]; 10 μM, s9 & glucuronidase): 43%; Percentage of Initial Parent Administration (Mean ± Std Dev): parent compound ([4]; 10 μM, s9 & sulfatase): 54 ± 1%; Percentage of Initial Parent Administration (Mean ± Std Dev): parent compound [4, 12]: 55 ± 4%; % Depletion [4, 12]: 45%; % Depletion ([4]; 10 μM, s9 & sulfatase): 46%; % Depletion ([4]; 10 μM, s9): 45%; Percentage of Initial Parent Administration (Mean ± Std Dev): parent compound ([4]; 10 μM, unprocessed spike): 100 ± 3%; Initial parent mass unaccounted for after quantifying suspected metabolites [4]: approximately 20%
4 | CC(C)(C)c1ccc(OP(=O)(Oc2ccccc2)Oc2ccccc2)cc1 [4tBPDPP, 4-tert-butylphenyl diphenyl phosphate] | −0.013 ln[nmol]/min/mg protein | −0.031 nmol/min/mg protein | −0.0013 ln[nmol]/min/mg protein | −0.082 nmol/min/mg protein | 84 ± 8% | 9% | 81 ± 6% | 12% | 59 ± 11% | 56 ± 5% | 43% | 61 ± 5% | 39% | 41% | 92 ± 4% | 100 ± 4% | 81 ± 1% | 8% | 79 ± 11% | 12% | Percentage of Initial Parent Administration (Mean ± Std Dev): parent compound [4, 11]: 60 ± 6%; % Depletion [4, 11]: 39%; Percentage of Initial Parent Administration (Mean ± Std Dev): parent compound ([4]; 10 μM, s9): 83 ± 2%; Percentage of Initial Parent Administration (Mean ± Std Dev): parent compound ([4]; 10 μM, s9 & glucuronidase): 72 ± 5%; % Depletion ([4]; 10 μM, s9 & glucuronidase): 23%; Percentage of Initial Parent Administration (Mean ± Std Dev): parent compound ([4]; 10 μM, s9 & sulfatase): 73 ± 9%; Percentage of Initial Parent Administration (Mean ± Std Dev): parent compound [4, 12]: 71 ± 6%; % Depletion [4, 12]: 25%; % Depletion ([4]; 10 μM, s9 & sulfatase): 23%; % Depletion ([4]; 10 μM, s9): 12%; Percentage of Initial Parent Administration (Mean ± Std Dev): parent compound ([4]; 10 μM, unprocessed spike): 89 ± 1%; Percent depletion lower than that of TPHP ([4]; human, pH 7.4): 30–45%; Parent converted to DPHP ([5]; 2 μM, 100-min incubation): 41%
5 | O=P(O)(Oc1ccccc1)Oc1ccccc1 [DPHP, diphenyl phosphate] |  |  |  |  |  |  |  |  |  |  |  |  |  |  |  |  |  |  |  |  | Geometric mean urinary concentration [6]: around 10 nM
6 | CC(C)c1ccccc1OP(=O)(Oc1ccccc1C(C)C)Oc1ccccc1C(C)C [T2IPPP] |  |  |  |  |  |  |  |  |  |  |  |  |  |  |  |  |  |  |  |  | DPHP formation following incubation ([5]; ref Strobel et al., 2018): not detected
7 | O=P(Oc1ccccc1)(Oc1ccccc1)Oc1ccccc1 [TPHP, triphenyl phosphate, reference compound] | −0.032 ^* ln[nmol]/min/mg protein | −0.024 nmol/min/mg protein | −0.0030 ln[nmol]/min/mg protein | −0.032 nmol/min/mg protein | 94 ± 7% | 6% | 88 ± 2% | 12% | 31 ± 2% | 31 ± 3% | 69% | 23 ± 1% | 77% | 69% | 100 ± 5% | 100 ± 5% | 95 ± 1% | 5% | 94 ± 1% | 6% | Percentage of DPHP formation following incubation [7]: 22%; Depletion rate [8]: 22 pmol/min/mg; Depletion rate ([3]; 1 μM dose): 24 pmol/min/mg; Mass of parent lower in the +S9 treatment compared to the unprocessed spike ([4]; 1 μM): 69–77%; Mass of parent lower in the +S9 treatment compared to the unprocessed spike ([4]; 10 μM): 32–37%; Percentage of Initial Parent Administration (Mean ± Std Dev): parent compound ([4]; 10 μM, s9): 68 ± 1%; Percentage of Initial Parent Administration (Mean ± Std Dev): parent compound ([4]; 10 μM, s9 & glucuronidase): 67 ± 1%; % Depletion ([4]; 10 μM, s9 & glucuronidase): 33%; Percentage of Initial Parent Administration (Mean ± Std Dev): parent compound ([4]; 10 μM, s9 & sulfatase): 63 ± 0.2%; % Depletion ([4]; 10 μM, s9 & sulfatase): 37%; % Depletion ([4]; 10 μM, s9): 32%; Percentage of Initial Parent Administration (Mean ± Std Dev): parent compound ([4]; 10 μM, unprocessed spike): 100 ± 1%; Initial parent depleted in the abiotic control group ([4]; both doses): 5–6%; Percentage of DPHP formation following incubation [9]: 97%; OH-TPHP glucuronide conjugates, share of the initial TPHP treatment [10]: 65%
8 | C=C(C)c1ccccc1OP(=O)(Oc1ccccc1)Oc1ccccc1 [mono-(o-isopropenylphenyl)-diphenyl phosphate] |  |  |  |  |  |  |  |  |  |  |  |  |  |  |  |  |  |  |  |  | Detection in rabbit bile [1]: detected
9 | hydroxy-o-isopropylphenyl diphenyl phosphate [Hydroxylated 2IPPDPP] |  |  |  |  |  |  |  |  |  |  |  |  |  |  |  |  |  |  |  |  | Detection in human urine samples (number of samples out of 9) [2]: not detected
10 | mono-isopropenylphenyl diphenyl phosphate |  |  |  |  |  |  |  |  |  |  |  |  |  |  |  |  |  |  |  |  | Detection in human urine samples (number of samples out of 9) [2]: 1
